# Source: publication PMC6409614, “BmTudor-sn Is a Binding Protein of Destruxin A in Silkworm Bm12 Cells” (Toxins, 2019)
# Non-standard residues stand in square brackets, D forms with d. Residues, ends and D or L forms follow the SMILES beside them. dLac(3-vinyl) = C=CC[C@@H](O)C(=O)O; NMeV = CN[C@H](C(=O)O)C(C)C; NMeA = CN[C@@H](C)C(=O)O; βAla = NCCC(=O)O
# How the values were obtained:
# [1] = system: BmTudor-sn; assay: Transcriptional level of BmTudor-sn; type: cell-based, Bombyx mori; conditions: by DA; method not described
# [2] = system: heat shock proteins (HSPs); conditions: cultured cells (Bm12), DARTS; cited from earlier work
# Excerpt: (§1) Destruxins are cyclodepsipeptidic mycotoxins, and there are 39 analogues. […] Because of the immunosuppression activity of DA in insects, the majority of studies have focused on the mechanism of action of the effect of DA on the immune-related pathway or st ...
# [3] = system: insects; conditions: cited from earlier work
# Excerpt: as §1
# [4] = system: HSP; conditions: in vitro molecular interaction validation; cited from earlier work
# Excerpt: as §1
# [5] = system: BmPiwi; assay: Bio-Layer Interferometry (BLI), BmPiwi; type: binding, Bombyx mori; conditions: recombinant protein from Sf9 cells, DA 7.813-500 μM
# Protocol: (§2) All proteins were prepared by eukaryotic expression in the Sf9 cell line. These were tagged with His-tag and purified by nickel affinity chromatography. BLI analysis was performed on a ForteBio OctetQK System (K2, Pall Fortebio Corp, Menlo Park, CA, USA). Generally, the protein samples were coupled with a biosensor for immobilization. Serial not gradient dilutions of DA (500, 250, 125, 62.5, 31.25, 15.63, and 7.813 μM) were used for treatment. PBST buffer (0.05% Tween20, 5% DMSO) was used for the reference and dilution buffers. The working procedure was baseline for 60 s, association for 60 s, and dissociation for 60 s. Finally, the raw data were processed with Data Analysis Software (9.0, Pall Fortebio Corp, Menlo Park, CA, USA).
# [6] = system: BmAGO2; assay: Bio-Layer Interferometry (BLI), BmAGO2; type: binding, Bombyx mori; conditions: recombinant protein from Sf9 cells, DA 7.813-500 μM
# Protocol: as §2
# [7] = system: BmAGO2; assay: Transcriptional level of BmAGO2; type: cell-based, Bombyx mori; conditions: by DA; method not described
# [8] = system: Bm12 cells; assay: RNAi and viability assessment under DA treatment; type: cell-based, silkworm (Bombyx mori)
# Protocol: SiRNAs were prepared by synthesis in vitro. The sequence of BmTudor-sn siRNA is 5ʹ-[…]-3ʹ and 5ʹ-[…]-3ʹ. SiRNA and FuGENE transfection reagent were each diluted in serum-free medium and then mixed. The mixture was added to Bm12 cells after the DA treatment. Viability and toxicity assessment were performed following the manufacturer’s instructions.
# [9] = system: BmAGO2; assay: Cellular thermal shift assay (CETSA), BmAGO2; type: cell-based, Bombyx mori; conditions: Bm12 cells, DA 200 µg/mL, 37–58 °C, freeze-thaw lysis, western blot of supernatant
# Protocol: (§3) The Bm12 cell line was used to conduct the CETSA and immunoblot experiments. Cells were treated with DA. For immunoblotting, cell extracts from different DA treatments, collected after incubation with RIPA lysis buffer, were digested with proteinase K and then heated in water at 90 °C for 5 min. Samples were analyzed using SDS-PAGE and transferred to PVDF membranes. The membranes were then incubated in skim milk powder, followed by incubation with primary and HRP antibodies. ECL was added to the chemiluminescence reaction. For CETSA, Bm12 cells, treated with 200 µg/mL DA, were divided into 8 aliquots, heated at 37–58 °C, and lysed by a freeze-thaw cycle. The supernatants of the lysed cells were used for the western blot analysis as described above.
# [10] = system: BmTudor-sn; assay: Cellular thermal shift assay (CETSA), BmTudor-sn; type: cell-based, Bombyx mori; conditions: Bm12 cells
# Protocol: as §3
# [11] = system: BmPiwi; assay: Transcriptional level of BmPiwi; type: cell-based, Bombyx mori; conditions: by DA; method not described
# [12] = system: BmTudor-sn; assay: Immunoblot after proteolysis, BmTudor-sn; type: cell-based, Bombyx mori; conditions: Bm12 cell extracts from different DA treatments, proteinase K, western blot
# Protocol: as §3
# [13] = molecular target: BmTudor-sn; assay: Bio-Layer Interferometry (BLI), BmTudor-sn; type: binding, Bombyx mori; conditions: PBST (0.05% Tween20, 5% DMSO)
# Protocol: as §2
# [14] = system: BmTudor-sn; conditions: Bm12 cells; specific proteinase; earlier DARTS analysis of the authors; reference not given; cited from earlier work
# Excerpt: Molecular docking is a reasonable, efficient, and convenient strategy to narrow down candidates among all proteins compared to other methods such as heterologous expression and kinetic analysis, which require verification one by one. However, it seems paradoxical in this study that proteins with the top docking scores were not the binding protein [24]. Actually, docking is a completely theoretical speculation, and other experiments are required to draw a conclusion. H ...
# [15] = system: BmPiwi; assay: Cellular thermal shift assay (CETSA), BmPiwi; type: cell-based, Bombyx mori; conditions: Bm12 cells, DA 200 µg/mL, 37–58 °C, freeze-thaw lysis, western blot of supernatant
# Protocol: as §3
# [16] = system: BmTudor-sn with BmAGO1; assay: Insect two-hybrid (I2H), interaction of BmTudor-sn and mutants with BmAGO1; type: cell-based, Bombyx mori; conditions: Sf9 cells, luciferase; for mutants with signal different from wild type: p < 0.05, DMRT
# Protocol: BmTudor-sn and mutants were cloned into the I2H vector pIE-AD, and BmAGO1 was cloned into the I2H vector pIE-DBD using the Gateway system. These vectors and the luciferase vector were co-transfected into the Sf9 cell line and treated with DA at 0.02 and 0.2 µg/mL. The luciferase activities in the cell extracts were determined using a Luciferase Reporter Assay System (Promega, Beijing, China) and Synergy™ H1 (BioTek, Winooski, VT, USA).
# [17] = molecular target: T1, BmTudor-sn (Bombyx mori, UniProt D9N4J4); assay: cellular thermal shift assay (CETSA), western blot, endogenous protein in Bm12 cells; type: cell-based; conditions: 200 µg/mL DA; intact Bm12 cells heated at 37–58 °C
# T1 construct: gene Tudor-SN; endogenous protein in Bm12 cells (CETSA); four staphylococcal nuclease domains and a Tudor domain
# T1 sequence (D9N4J4 1-888): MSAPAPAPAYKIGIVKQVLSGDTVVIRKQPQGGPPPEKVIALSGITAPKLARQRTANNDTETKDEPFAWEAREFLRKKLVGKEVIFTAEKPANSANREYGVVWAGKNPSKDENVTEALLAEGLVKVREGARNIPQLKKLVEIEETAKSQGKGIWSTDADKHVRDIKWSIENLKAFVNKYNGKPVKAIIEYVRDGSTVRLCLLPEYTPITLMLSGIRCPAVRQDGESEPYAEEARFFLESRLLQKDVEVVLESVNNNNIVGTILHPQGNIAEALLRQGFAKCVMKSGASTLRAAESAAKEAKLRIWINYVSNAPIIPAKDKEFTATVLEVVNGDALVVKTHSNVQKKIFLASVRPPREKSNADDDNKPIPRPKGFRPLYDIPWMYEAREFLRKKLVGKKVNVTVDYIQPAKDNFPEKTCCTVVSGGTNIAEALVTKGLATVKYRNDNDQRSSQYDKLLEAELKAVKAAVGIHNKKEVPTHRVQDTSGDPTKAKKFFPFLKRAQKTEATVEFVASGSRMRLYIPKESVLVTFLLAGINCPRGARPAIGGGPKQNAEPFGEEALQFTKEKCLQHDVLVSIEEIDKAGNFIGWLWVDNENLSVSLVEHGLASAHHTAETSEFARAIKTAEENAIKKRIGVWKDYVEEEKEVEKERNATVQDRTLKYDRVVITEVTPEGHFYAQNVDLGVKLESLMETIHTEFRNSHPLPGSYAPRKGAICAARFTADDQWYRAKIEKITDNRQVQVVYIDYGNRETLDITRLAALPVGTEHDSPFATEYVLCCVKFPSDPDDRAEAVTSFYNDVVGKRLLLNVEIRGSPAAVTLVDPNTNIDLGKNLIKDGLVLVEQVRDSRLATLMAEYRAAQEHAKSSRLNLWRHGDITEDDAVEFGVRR
# [18] = molecular target: T1, BmTudor-sn; assay: bio-layer interferometry (ForteBio OctetQK), protein immobilised on biosensor; type: binding
# [19] = cited from earlier work
# Excerpt: (§4) DA has been previously reported to play a role in immune related pathways and in inducing the immunosuppression phenotype in insects. The majority of studies have focused on these roles, while few have addressed the mechanism of action in cells. […] Tudor-sn, a multifunctional protein, was reported to regulate do ...
# [20] = system: V-ATPase; conditions: silkworm hemocytes; earlier work of the authors, no reference given; cited from earlier work
# Excerpt: as §4
# [21] = DA 0.02 or 0.2 µg/mL, by mutant site
compound,measurement,setting,value
"C=CC[C@H]1OC(=O)CCNC(=O)[C@H](C)N(C)C(=O)[C@H](C(C)C)N(C)C(=O)[C@H]([C@@H](C)CC)NC(=O)[C@@H]2CCCN2C1=O [DA, Destruxin A] (cyclo([dLac(3-vinyl)]PI[NMeV][NMeA][βAla])) [listing 1 of 2 here]",upregulation at the transcriptional level,[1],2-3 fold
same,induction of heat shock proteins,[2],greatly induced heat shock proteins (HSPs) in cultured cells
same,insecticidal effect and anti-immunity activity,[3],strong insecticidal effect and anti-immunity activity
same,binding to an HSP,[4],binds to an HSP in vitro
same,interaction with DA,[5],not BmPiwi or BmAGO2
same,interaction with DA,[6],not BmPiwi or BmAGO2
same,upregulation at the transcriptional level,[7],2-3 fold
same,viability of BmTudor-sn knock down cells,"[8]; Bm12 cells under DA treatment, * p < 0.05, t test",higher viability under DA treatment
same,increase in viability with BmTudor-sn knockdown,"[8]; Bm12 cells, BmTudor-sn siRNA, DA treatment",approximately 20%
same,thermal stability shift (CETSA),[9],no thermal stability shift in BmPiwi and BmAGO2
same,"thermal stability (CETSA), dose dependence",[10]; 200 µg/mL versus lower dose,BmTudor-sn showed thermal stability with the 200 µg/mL treatment and not at the lower dose
same,thermal stability (CETSA),"[10]; DA 200 µg/mL, 37–58 °C, freeze-thaw lysis, western blot of supernatant",thermal stability of BmTudor-sn increased following DA binding modification
same,upregulation at the transcriptional level,[11],2-3 fold
same,protein stability under proteolysis (immunoblot),[12],stable with DA treatment in a dosage-dependent manner under proteolysis
same,Kd,"[13]; BLI, ForteBio OctetQK, His-tagged recombinant protein from Sf9 cells immobilized, association 60 s, dissociation 60 s, DA 7.813-500 μM, read-out: affinity constant KD",587 µM
same,interaction with DA,"[13]; BLI, DA 125, 250 and 500 µM","interacts with BmTudor-sn at concentrations of 125 µm, 250 µm, and 500 µm"
same,BLI Response,[13]; DA 7.81 uM,-0.0024
same,BLI Response,[13]; DA 15.6 uM,-0.0035
same,BLI Response,[13]; DA 31.3 uM,-0.0012
same,BLI Response,[13]; DA 62.5 uM,0.0001
same,BLI Response,[13]; DA 125 uM,0.0032
same,BLI Response,[13]; DA 250 uM,0.0086
same,BLI Response,[13]; DA 500 uM,0.0071
same,appearance of BmTudor-sn in DARTS,[14],only appeared in the 200 µg/mL treatment with a specific proteinase and not at the lower dosage and with other proteinases
same,thermal stability shift (CETSA),[15],no thermal stability shift in BmPiwi and BmAGO2
same,mutants with signal different from wild type,[16]; DA 0.02 µg/mL,"2 mutants, Ser707Ala and leu704Ala"
same,mutants with signal different from wild type,[16]; DA 0.2 µg/mL,"3 mutants, Ser701Ala, Leu704Ala, and Tyr708Ala"
same,domain of differing mutants,[16]; DA 0.02 and 0.2 µg/mL,"in the Tudor domain (Ser707, Leu704, Ser701, Tyr708) rather than the SN3 (Lys492) and SN4 (Lys582) domains"
same,interaction site at both concentrations,[16]; DA 0.02 and 0.2 µg/mL,interacts with BmTudor-sn at both concentrations at Leu704
same,"effect on BmTudor-sn/BmAGO1 pair interaction, impeded",[16]; [21],impeded the protein pair interaction at Ser707 and Tyr708
same,"effect on BmTudor-sn/BmAGO1 pair interaction, promoted",[16]; [21],promoted it at Leu704 and Ser701
"C=CC[C@H]1OC(=O)CCNC(=O)[C@H](C)N(C)C(=O)[C@H](C(C)C)N(C)C(=O)[C@H]([C@@H](C)CC)NC(=O)[C@@H]2CCCN2C1=O [DA, Destruxin A] (cyclo([dLac(3-vinyl)]PI[NMeV][NMeA][βAla])) [listing 2 of 2 here]",thermal stability shift,[17],the thermal stability of BmTudor-sn increased following DA binding modification
same,Kd,[18],587 µM
Destruxin B [DB],anti-cancer activity,[19],clear anti-cancer activity
same,sensitivity to V-ATPase compared with DA,[20],more sensitive to V-ATPase than DA in silkworm hemocytes
